{
  "source": "patent US7259002B2",
  "about": "“Polynucleotide encoding a novel acyl coenzyme A, monoacylglycerol acyltransferase-3 (MGAT3), and uses thereof” (Bristol-Myers Squibb Company, priority 2003, dated 2007)",
  "molecules": {"B1": {"name": "MGAT3: monoacylglycerol acyltransferase-3, 341 amino acid protein of SEQ ID NO:2 (protein, listed as Homo Sapiens)", "chain": "MGVATTLQPPTTSKTLQKQHLEAVGAYQYVLTFLFMGPFFSLLVFVLLFTSLWPFSVFYLVWLYVDWDTPNQGGRRSEWIRNRAIWRQLRDYYPVKLVKTAELPPDRNYVLGAHPHGIMCTGFLCNFSTESNGFSQLFPGLRPWLAVLAGLFYLPVYRDYIMSFGLCPVSRQSLDFILSQPQLGQAVVIMVGGAHEALYSVPGEHCLTLQKRKGFVRLALRHGASLVPVYSFGENDIFRLKAFATGSWQHWCQLTFKKLMGFSPCIFWGRGLFSATSWGLLPFAVPITTVVGRPIPVPQRLHPTEEEVNHYHALYMTALEQLFEEHKESCGVPASTCLTFI"}, "B2": {"name": "DGAT2: recombinant human diacylglycerol acyltransferase 2 expressed in the same manner as a control (protein, listed as Homo Sapiens)", "chain": "MKTLIAAYSGVLRGERQAEADRSQRSHGGPALSREGSGRWGTGSSILSALQDLFSVTWLNRSKVEKQLQVISVLQWVLSFLVLGVACSAILMYIFCTDCWLIAVLYFTWLVFDWNTPKKGGRRSQWVRNWAVWRYFRDYFPIQLVKTHNLLTTRNYIFGYHPHGIMGLGAFCNFSTEATEVSKKFPGIRPYLATLAGNFRMPVLREYLMSGGICPVSRDTIDYLLSKNGSGNAIIIVVGGAAESLSSMPGKNAVTLRNRKGFVKLALRHGADLVPIYSFGENEVYKQVIFEEGSWGRWVQKKFQKYIGFAPCIFHGRGLFSSDTWGLVPYSKPITTVVGEPITIPKLEHPTQQDIDLYHTMYMEALVKLFDKHKTKFGLPETEVLEVN", "modifications": "FLAG tag", "notes": "recombinant human diacylglycerol acyltransferase 2 expressed in the same manner as a control"}},
  "type_in_all_cases": "biochemical",
  "key": {"recombinant human MGAT3": {"target": "T1, recombinant human MGAT3 (Homo sapiens, UniProt Q86VF5)", "T1 construct": "predicted to contain the entire open reading frame, was chosen for further study; made in house; host or cells: Spodoptera frugiperda Sf9 insect cells (baculovirus, Bac-to-Bac); 100,000 x g membrane fractions", "T1 sequence (Q86VF5 1-341)": "B1 chain", "experiment": "Substrate concentration titration and substrate specificity in the MGAT enzyme assay", "conditions": "for optimal substrate concentration: 10 μg membrane fractions, 10 min at 37° C.; for substrate optimum for acyl-CoAs: acyl-CoAs at 50 μM, 200 μM sn-2-[3H]monooleoylglycerol tracer", "experimental": "Sf9 cells were setup and infected with either wild type or recombinant MGAT3 viruses as in FIG. 4. After 2 days of infection, the cells were harvested, membrane fractions were prepared and aliquots of membranes were subjected to MGAT enzyme assays with various concentrations of substrates. For A, 200 μM sn-2-monooleoylglycerol and various amounts of [14C]oleoyl coenzyme A (20,000 dpm/nmol) and for B, 50 μM [14C]oleoyl coenzyme A (20,000 dpm/nmol) and various amounts of sn-2-monooleoylglycerol were incubated with 10 μg membrane fractions for 10 min at 37° C. Lipid bands corresponding to TAG and DAG were cut from TLC sheets and counted with scintillation counter. Activities were corrected values of recombinant membranes deducted by values of wild type membranes. Duplicated assays were conducted and the standard deviations were smaller than 10% of the mean.\nSf9 cells were setup and infected either with wild type, recombinant MGAT3 or with DGAT2 viruses as in FIG. 4. Aliquots of membrane fractions (10 μg) were subjected to MGAT assays to determine A) MAG stereoisomer specificity and B) preference of fatty acyl-CoAs. In A, 50 μM [14C]oleoyl coenzyme A (20,000 dpm/nmol) and 200 μM of sn-1-monooleoyglycerol (1-MAG), sn-2-monooleoyglycerol (2-MAG), or […] (3-MAG); and in B, 200 μM sn-2-[3H]monooleoylglycerol (20,000 dpm/nmol) and different acyl-CoAs at 50 μM were incubated with 10 μg membrane fractions at 37° C. for 10 min. C2, acetyl-CoA; M, malonyl-CoA; C4:0, butyryl-CoA; C12:0, lauroyl-CoA; C16:0, palmitoyl-CoA; C18:0, stearoyl-CoA; C20:0, arachidoyl-CoA; C18:1, oleoyl-CoA; C18:2, linoleoyl-CoA; C20:4, arachidonoyl-CoA.\nMGAT activities were assayed for 5-10 min at 37° C. in a final volume of 200 μl according to a protocol modified from Coleman (Coleman, R. A. (1992) Methods Enzymol. 209:98-104). Each reaction contained 10 μg of membrane proteins in Assay Buffer (100 mM Tris-HCl, pH7.5, 5 mM MgCl2, 1.25 mg/ml BSA, 250 mM sucrose, 800 μM phophatidylcholine liposomes). Generally, 50 μM of acyl coenzyme A and 200 μM sn-2-monoacylglycerol (delivered in acetone, final acetone concentration <2%) were used. Reactions were started by adding protein and terminated by adding 4 ml chloroform/methanol (2/1, v/v). The extracted lipids were dried, separated by thin layer chromatography (TLC) with hexane/ethyl ether/acetic acid (85/15/0.5, v/v/v).\nIdentities of triacylglycerol (TAG), diacylglycerol (DAG), monoacylglycerol (MAG), free fatty acid (FFA) and other lipids were verified with lipid standards (Sigma) after staining with iodine vapor. The specific enzyme activities were traced by measuring the incorporation of [14C]oleoyl-CoA (20,000 dpm/nmol) or sn-2-[3H] monooleolyglycerol (20,000 dpm/nmol). Chromatograms were also analyzed with STORM PhosphoImager."}, "[1]": {"experiment": "MGAT enzyme assay (TLC, scintillation counting) of membranes from Sf9 cells expressing the recombinant enzyme", "conditions": "50 μM [14C]oleoyl coenzyme A", "experimental": "Sf9 cells were setup and infected with wild type or recombinant MGAT3 viruses as in FIG. 4. Membrane extracts were prepared from the cells with various post infection times. Aliquots of membrane fractions were either subjected to A) immunoblot analysis with anti-FLAG IgG; or to B) TLC enzyme assays. For substrates, 200 μM sn-2-monooleoylglycerol and 50 μM [14C]oleoyl coenzyme A (20,000 dpm/nmol) were incubated with 10 μg membrane fractions for 6 min at 37° C. After TLC separation, the DAG and the TAG bands were cut from TLC sheets and subjected to scintillation counting. The activities were expressed as nmol/min/mg protein. Values were averages of duplicated determinations and the standard deviations were smaller than 10% of the mean.\nThe predicted coding sequence of human MGAT3 was fused with an NH2-terminal FLAG epitope (MGDYKDDDDG, (SEQ ID NO:21) epitope underlined) and expressed in Spodoptera frugiperda (Sf9) insect cells using Bac-to-Bac™ kit (Life Technologies) according to manufacturer's instructions. Recombinant FLAG-human-DGAT2 was expressed in the same manner as a control. Generally, cells were infected with viruses (MOI>3) for 2 days. After harvest, cells were washed with PBS, and then homogenized with a probe sonicator in Homogenization Buffer (10 mM Tris-HCl, pH 7.4, 250 mM sucrose, 1× Protease Inhibitor Cocktail [Roche]). Membrane fractions (100,000×g pellets) were stored at −80° C. until use for enzymatic assays. For immunoblot analysis, aliquots of 2 μg of membrane proteins were loaded on SDS-PAGE and probed with an anti-FLAG M2 IgG (Sigma).\nMGAT activities were assayed for 5-10 min at 37° C. in a final volume of 200 μl according to a protocol modified from Coleman (Coleman, R. A. (1992) Methods Enzymol. 209:98-104). […]\nIdentities of triacylglycerol (TAG), diacylglycerol (DAG), monoacylglycerol (MAG), free fatty acid (FFA) and other lipids were verified with lipid standards (Sigma) after staining with iodine vapor. […] Chromatograms were also analyzed with STORM PhosphoImager."}, "[2]": {"experiment": "DGAT activity: exogenous DAG assayed directly with recombinant membranes (TLC)", "conditions": "Sf9 membranes, [14C]oleoyl-CoA tracer"}, "[3]": {"conditions": "Sf9 cell membranes, 200 μM sn-2-monooleoylglycerol, 6 min at 37° C., highest value of time course"}},
  "data": [
    {"molecule": "CCCCCCCC/C=C\\CCCCCCCC(=O)OC(CO)CO", "note": "[2-monooleoylglycerol, sn-2-monooleoylglycerol]", "values": [
      {"measurement": "optimal substrate concentration", "setting": "recombinant human MGAT3", "result": 200, "unit": "µM"},
      {"measurement": "MAG stereoisomer specificity (DAG synthesis)", "setting": "recombinant human MGAT3; 200 μM MAG, 50 μM [14C]oleoyl coenzyme A", "result": "prefers 2-MAG as the substrate"}
    ]},
    {"molecule": "CCCCCCCC/C=C\\CCCCCCCC(=O)SCCNC(=O)CCNC(=O)[C@H](O)C(C)(C)COP(=O)(O)OP(=O)(O)OC[C@H]1O[C@@H](n2cnc3c(N)ncnc32)[C@H](O)[C@@H]1OP(=O)(O)O", "note": "[oleoyl-CoA]", "values": [
      {"measurement": "optimal substrate concentration", "setting": "recombinant human MGAT3", "result": 50, "unit": "µM"},
      {"measurement": "substrate optimum for acyl-CoAs", "setting": "recombinant human MGAT3", "result": "best substrates"}
    ]},
    {"molecule": "CCCCCCCCCCCCCCCC(=O)SCCNC(=O)CCNC(=O)[C@H](O)C(C)(C)COP(=O)(O)OP(=O)(O)OC[C@H]1O[C@@H](n2cnc3c(N)ncnc32)[C@H](O)[C@@H]1OP(=O)(O)O", "note": "[palmitoyl-CoA]", "values": [
      {"measurement": "substrate optimum for acyl-CoAs", "setting": "recombinant human MGAT3", "result": "best substrates"}
    ]},
    {"molecule": "B1", "values": [
      {"measurement": "specific activity for DAG", "setting": "[1]; [3]", "result": 22.8, "unit": "nmol/min/mg"},
      {"measurement": "specific activity for TAG", "setting": "[1]; [3]", "result": 9.3, "unit": "nmol/min/mg"},
      {"measurement": "acylation of exogenous DAG to TAG (DGAT activity)", "setting": "[2]", "result": "able to acylate DAG to form TAG directly"}
    ]},
    {"molecule": "B2", "values": [
      {"measurement": "TAG synthesis from MAG stereoisomers", "setting": "[1]; Sf9 membranes, 1-MAG, 2-MAG or 3-MAG at 200 μM", "result": "able to synthesize similar amount of TAG using three different MAG stereoisomers"}
    ]}
  ]
}
